B1: Antistasin: "a potent inhibitor of blood coagulation factor Xa from the Mexican leech, Haementeria officinalis" (protein, UniProt P15358 18-136, looked up)
Antistasin: QGPFGPGCEEAGCPEGSACNIITDRCTCSGVRCRMHCPHGFQRSRYGCEFCKCRLEPMKATCDISECPEGMMCSRLTNKCDCKIDINCRKTCPNGLKRDKLGCEYCECRPKRKLIPRLS

Target: T1, human factor Xa (Homo sapiens, UniProt P00742)
T1 construct: purchased Enzyme Research Laboratories
T1 sequence (P00742 235-488 limits assumed): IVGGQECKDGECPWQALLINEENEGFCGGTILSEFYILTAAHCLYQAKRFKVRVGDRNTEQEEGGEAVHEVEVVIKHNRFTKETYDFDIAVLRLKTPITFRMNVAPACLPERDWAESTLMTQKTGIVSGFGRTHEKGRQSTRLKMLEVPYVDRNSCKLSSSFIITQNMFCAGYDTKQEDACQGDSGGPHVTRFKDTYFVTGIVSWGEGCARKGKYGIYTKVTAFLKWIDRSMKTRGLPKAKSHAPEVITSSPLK
T1 sequence (P00742 41-179 partner limits assumed): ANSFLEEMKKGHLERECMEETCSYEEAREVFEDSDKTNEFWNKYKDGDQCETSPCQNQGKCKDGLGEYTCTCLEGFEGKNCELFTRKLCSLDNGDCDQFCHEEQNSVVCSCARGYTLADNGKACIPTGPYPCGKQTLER
Assay: Determination of Factor Xa IC50 (cleavage of chromogenic substrate S2765)
Format: biochemical
Details: 3 pM factor Xa; compound at 1 uM
Procedure: A. Determination of Factor Xa IC50
These concentrations were achieved by diluting a 21.087 μM stock solution of factor Xa in the appropriate amount of a buffer comprising 10 […], 0.1% BSA, pH 7.4 (HBSA buffer). Accordingly, 5 μL of the compound to be tested in DMSO (2% final) is added to the factor Xa/buffer solution and incubated for 60 minutes at room temperature.
The IC50 is determined by monitoring the increase in […] at 390 nm exicitation, 460 nm emission, with a 455 nm cutoff, in a fluorometric plate reader.
With `N#Cc1ccc(NC(=O)C2CCCN2C(=O)Nc2ccc(Cl)cc2)cc1` (stereo not drawn) the “Fxa 3 PM % Inhibition at 1 uM” value was 16.58%.
In the case of `O=C(Nc1ccc(-c2nnn[nH]2)cc1)C1CCCN1C(=O)Nc1ccc(Cl)cc1` (stereo not drawn), the “Fxa 3 PM % Inhibition at 1 uM” value is reported as 36.64%.
In the case of `NS(=O)(=O)c1ccccc1-c1ccc(NC(=O)[C@@H]2CCCN2C(=O)Nc2ccc(Cl)cc2)c(F)c1`, the “Fxa 3 PM % Inhibition at 1 uM” value is reported as 46.5%.

Same assay, conditions: 3 pM factor Xa; compound at 4 uM
With `NS(=O)(=O)c1ccccc1-c1ccc(NC(=O)C2CCCN2C(=O)Nc2ccccc2F)c(F)c1` (stereo not drawn) the “Fxa 3 PM % Inhibition at 4 uM” value was 37.21%.
In the case of `CC(=O)c1cccc(NC(=O)N2CCCC2C(=O)Nc2ccc(-c3ccccc3S(N)(=O)=O)cc2F)c1` (stereo not drawn), the “Fxa 3 PM % Inhibition at 4 uM” value is reported as 21.04%.
With `NS(=O)(=O)c1ccccc1-c1ccc(NC(=O)C2CCCN2C(=O)Nc2ccc(F)c(Cl)c2)c(F)c1` (stereo not drawn) the “Fxa 3 PM % Inhibition at 4 uM” value was 41.07%.
For `NS(=O)(=O)c1ccccc1-c1ccc(NC(=O)C2CCCN2C(=O)Nc2cccc(Cl)c2)c(F)c1` (stereo not drawn), the “Fxa 3 PM % Inhibition at 4 uM” value was 55.97%.
In the case of `NS(=O)(=O)c1ccccc1-c1ccc(NC(=O)C2CCCN2C(=O)Nc2ccc(Cl)c(Cl)c2)c(F)c1` (stereo not drawn), the “Fxa 3 PM % Inhibition at 4 uM” value is reported as 41.71%.
With `Cc1cc(Cl)ccc1NC(=O)N1CCCC1C(=O)Nc1ccc(-c2ccccc2S(N)(=O)=O)cc1F` (stereo not drawn) the “Fxa 3 PM % Inhibition at 4 uM” value was 38.88%.
With `N#Cc1ccc(NC(=O)N2CCCC2C(=O)Nc2ccc(-c3ccccc3S(N)(=O)=O)cc2F)cc1` (stereo not drawn) the “Fxa 3 PM % Inhibition at 4 uM” value was 51.86%.
For `CN(C)c1ccc(NC(=O)N2CCCC2C(=O)Nc2ccc(-c3ccccc3S(N)(=O)=O)cc2F)cc1` (stereo not drawn), the “Fxa 3 PM % Inhibition at 4 uM” value was 19.93%.
In the case of `CCc1ccc(NC(=O)N2CCCC2C(=O)Nc2ccc(-c3ccccc3S(N)(=O)=O)cc2F)cc1` (stereo not drawn), the “Fxa 3 PM % Inhibition at 4 uM” value is reported as 38.14%.
In the case of `Cc1ccc(Cl)cc1NC(=O)N1CCCC1C(=O)Nc1ccc(-c2ccccc2S(N)(=O)=O)cc1F` (stereo not drawn), the “Fxa 3 PM % Inhibition at 4 uM” value is reported as 19.84%.
With `CC(C)c1ccc(NC(=O)N2CCCC2C(=O)Nc2ccc(-c3ccccc3S(N)(=O)=O)cc2F)cc1` (stereo not drawn) the “Fxa 3 PM % Inhibition at 4 uM” value was 19.22%.
For `COc1cccc(NC(=O)N2CCCC2C(=O)Nc2ccc(-c3ccccc3S(N)(=O)=O)cc2F)c1` (stereo not drawn), the “Fxa 3 PM % Inhibition at 4 uM” value was 36.21%.
With `NS(=O)(=O)c1ccccc1-c1ccc(NC(=O)C2CCCN2C(=O)Nc2ccc(C(F)(F)F)cc2)c(F)c1` (stereo not drawn) the “Fxa 3 PM % Inhibition at 4 uM” value was 25.1%.
For `NS(=O)(=O)c1ccccc1-c1ccc(NC(=O)C2CCCN2C(=O)Nc2cccc(C(F)(F)F)c2)c(F)c1` (stereo not drawn), the “Fxa 3 PM % Inhibition at 4 uM” value was 21.61%.

Same assay, conditions: 1 h, read-out: % at 1 uM (printed in column FXA 30 pM IC50); 30 pM factor Xa; compound at 1 uM
In the case of `O=C(Nc1ccc(-c2cncnc2)cc1)[C@H]1C[C@@H](O)CN1C(=O)Nc1ccc(Cl)cc1`, the inhibition at 1 µM is reported as 32%.
In the case of `O=C(Nc1ccc(NC(=O)[C@H]2C[C@@H](O)CN2C(=O)Nc2ccc(Cl)cc2)cc1)C1CCCC1`, the inhibition at 1 µM is reported as 36%.
Work on `O=C(Nc1ccc(-n2ccnn2)cc1)[C@H]1C[C@@H](O)CN1C(=O)Nc1ccc(Cl)cc1` yielded an inhibition at 1 µM of 26%.
Work on `CO[C@@H]1C[C@H](C(=O)Nc2ccc(N3CCC3=O)cc2F)N(C(=O)Nc2ccc(Cl)cn2)C1` yielded an inhibition at 1 µM of 54%.

System: arterial and venous thrombosis
Assay: not given
Details: various models of arterial and venous thrombosis; cited from earlier work
In the case of B1, the antithrombotic activity is given as “displays antithrombotic activity”.

System: clot lysis / acute reocclusion
Assay: not given
Details: dog; cited from earlier work
For “rTAP: "recombinant tick anticoagulant peptide (rTAP)", one of the "protein or polypeptide factor Xa inhibitors" (YNRLCIKPRDWIDECDSNEGGERAYFRNGKGGCDSFWICPEDHTGADYYSSYRDCFNACI; UniProt P17726 1-60, looked up)”, the acute reocclusion is listed as “prevent acute reocclusion” and the “recombinant tissue plasminogen activator mediated clot lysis” value is listed as “accelerate the recombinant tissue plasminogen activator mediated clot lysis”.

System: arterial thrombosis
Assay: not given
Details: canine coronary artery electrolytic lesion model; cited from earlier work
For “rTAP: "recombinant tick anticoagulant peptide (rTAP)", one of the "protein or polypeptide factor Xa inhibitors" (YNRLCIKPRDWIDECDSNEGGERAYFRNGKGGCDSFWICPEDHTGADYYSSYRDCFNACI; UniProt P17726 1-60, looked up)”, the “thrombus mass and time to occlusion” value is given as “reduce thrombus mass and time to occlusion”.

System: venous thrombosis
Assay: not given
Details: rabbit model of venous thrombosis; cited from earlier work
In the case of “rTAP: "recombinant tick anticoagulant peptide (rTAP)", one of the "protein or polypeptide factor Xa inhibitors" (YNRLCIKPRDWIDECDSNEGGERAYFRNGKGGCDSFWICPEDHTGADYYSSYRDCFNACI; UniProt P17726 1-60, looked up)”, the fibrin deposition is given as “reduce fibrin deposition”.

System: thrombus formation
Assay: not given
Details: rat arteriovenous shunt and venous stasis models; cited from earlier work
In the case of `CC(=N)N1CC[C@H](Oc2ccc([C@H](Cc3ccc4ccc(C(=N)N)cc4c3)C(=O)O)cc2)C1` [DX9065a], the “inhibition of thrombus formation” value is given as “inhibition of thrombus formation was achieved at doses that had little effect on APTT”.

— patent US7030141B2, “Inhibitors of factor Xa and other serine proteases involved in the coagulation cascade” (priority 2001, dated 2006)
